Laboratory results from patent publication US12721844B2, “Chronic kidney disease treatment or prevention method” (Japan Tobacco Inc., priority 2019, dated 2026).

Legend:
[1] = tested on: Salmonella typhimurium (TA98, TA1537, TA100, and TA1535) and Escherichia coli (WP2 uvrA); assay: Ames test (reverse mutation test), all bacterial tester strains; assay type: cell-based; conditions: any of the bacterial tester strains, with and/or without S9 mix
Source text: (§1) Ames Test (Reverse Mutation Test)
(§2) Two plates per treatment were used.

[2] = tested on: Salmonella typhimurium TA1535; assay: Ames test (reverse mutation test), TA1535; assay type: cell-based
Source text: as §1, §2

[3] = with S9 mix, dose 1667 μg/plate
[4] = with S9 mix, dose 5000 μg/plate
[5] = without S9 mix, dose 6.9 μg/plate
[6] = without S9 mix, dose 21 μg/plate
[7] = without S9 mix, dose 62 μg/plate
[8] = without S9 mix, dose 185 μg/plate
[9] = without S9 mix, dose 556 μg/plate
[10] = without S9 mix, dose 1667 μg/plate
[11] = without S9 mix, dose 5000 μg/plate

Nc1cc(-c2cc(F)cc(OC(F)(F)F)c2)n(-c2cncc(C(F)(F)F)c2)n1 [Metabolite 5]
potential to induce reverse mutations [1]: did not show potential to induce reverse mutations
Number of revertant colonies TA1535 ([2]; with S9 mix, dose 6.9 μg/plate): 10
Number of revertant colonies TA1535 ([2]; with S9 mix, dose 21 μg/plate): 11
Number of revertant colonies TA1535 ([2]; with S9 mix, dose 62 μg/plate): 10
Number of revertant colonies TA1535 ([2]; with S9 mix, dose 185 μg/plate): 9
Number of revertant colonies TA1535 ([2]; with S9 mix, dose 556 μg/plate): 7
Number of revertant colonies TA1535 [2, 3]: 4
Number of revertant colonies TA1535 [2, 4]: 2
Number of revertant colonies TA1535 [2, 5]: 9
Number of revertant colonies TA1535 [2, 6]: 11
Number of revertant colonies TA1535 [2, 7]: 4
Number of revertant colonies TA1535 [2, 8]: 7
Number of revertant colonies TA1535 [2, 9]: 6
Number of revertant colonies TA1535 [2, 10]: 3
Number of revertant colonies TA1535 [2, 11]: 4

Nc1cc(-c2cc(F)cc(OC(F)(F)F)c2)n(-c2cncc(F)c2)n1 [Metabolite 3]
potential to induce reverse mutations [1]: did not show potential to induce reverse mutations
Number of revertant colonies TA1535 ([2]; with S9 mix, dose 6.9 μg/plate): 8
Number of revertant colonies TA1535 ([2]; with S9 mix, dose 21 μg/plate): 9
Number of revertant colonies TA1535 ([2]; with S9 mix, dose 62 μg/plate): 11
Number of revertant colonies TA1535 ([2]; with S9 mix, dose 185 μg/plate): 9
Number of revertant colonies TA1535 ([2]; with S9 mix, dose 556 μg/plate): 4
Number of revertant colonies TA1535 [2, 3]: 3
Number of revertant colonies TA1535 [2, 4]: 1
Number of revertant colonies TA1535 [2, 5]: 9
Number of revertant colonies TA1535 [2, 6]: 11
Number of revertant colonies TA1535 [2, 7]: 10
Number of revertant colonies TA1535 [2, 8]: 8
Number of revertant colonies TA1535 [2, 9]: 8
Number of revertant colonies TA1535 [2, 10]: 0
Number of revertant colonies TA1535 [2, 11]: 0
